# Laboratory results reported in publication PMC10689081 (BMB Reports, 2023).
# “Also recorded” adds a separate entry of the source.
# Tests used:
# [1] = system: SARS-CoV-2 Mpro; assay type: biochemical
# [2] = system: Mpro dimer; parameters: species or system SARS-CoV-2
# [3] = Solubility in water; assay type: physicochemical; settings: Supplementary Fig. 4
# [4] = Superose-12 10/300, 0.5 ml/min, buffer D pH 7.5, 298 K (Fig. 1B)
sequence,measurement,setting,value
SGFRKMAFPS [N10],inhibition of Mpro activity (in words),"[1]; N10, 1 μM Mpro, 0-500 μM N10, 10 μM substrate, 298 K",also shows inhibitory activity; also recorded: can inhibit the Mpro activity; also recorded: could inhibit the proteolytic activity of Mpro
same,inhibitory activity of N10 compared with GC376 (in words),[1]; sub-millimolar concentrations (Fig. 2B),weaker than that of GC376
same,disruption of dimer conformation (conclusion in words),[2],disrupted the dimer conformation
same,shift of Mpro dimer peak on adding N10,"[2]; Superose-12 10/300, 0.5 ml/min, 50 mM Tris-HCl pH 7.5, 1 M NaCl, 10% Glycerol, 1 mM DTT, 298 K (Fig. 1B)","shifted the Mpro dimer peak into a smaller size; also recorded: from dimer to a smaller size, a presumably monomer"
same,height of the delayed shifted peak compared to the original peak,[2]; [4],half-size in height
same,shape of the peak of Mpro with N10,[2]; [4],overlapped shape of two peaks of primary and shoulder; also recorded: overlapped uneven two peaks of primary and shoulder
same,solubility in water,[3],soluble in water
